According to patent US20060078875A1, “Genetic selection of small molecule modulators of protein-protein interactions” (The Penn State Research Foundation, priority 2004, published 2006):
Values belong to the molecule of their own block, whether it stands above or below them. Peptide text beside a SMILES is read from it.

Key:
[1] = target: T1, avian ATIC (AICAR Tfase) (Gallus gallus, UniProt P31335); test: AICAR Tfase progress curve analysis (DynaFit); assay type: biochemical; parameters: 6× histidine tag (N); made in house; conditions: progress curves
T1 sequence (P31335 1-593): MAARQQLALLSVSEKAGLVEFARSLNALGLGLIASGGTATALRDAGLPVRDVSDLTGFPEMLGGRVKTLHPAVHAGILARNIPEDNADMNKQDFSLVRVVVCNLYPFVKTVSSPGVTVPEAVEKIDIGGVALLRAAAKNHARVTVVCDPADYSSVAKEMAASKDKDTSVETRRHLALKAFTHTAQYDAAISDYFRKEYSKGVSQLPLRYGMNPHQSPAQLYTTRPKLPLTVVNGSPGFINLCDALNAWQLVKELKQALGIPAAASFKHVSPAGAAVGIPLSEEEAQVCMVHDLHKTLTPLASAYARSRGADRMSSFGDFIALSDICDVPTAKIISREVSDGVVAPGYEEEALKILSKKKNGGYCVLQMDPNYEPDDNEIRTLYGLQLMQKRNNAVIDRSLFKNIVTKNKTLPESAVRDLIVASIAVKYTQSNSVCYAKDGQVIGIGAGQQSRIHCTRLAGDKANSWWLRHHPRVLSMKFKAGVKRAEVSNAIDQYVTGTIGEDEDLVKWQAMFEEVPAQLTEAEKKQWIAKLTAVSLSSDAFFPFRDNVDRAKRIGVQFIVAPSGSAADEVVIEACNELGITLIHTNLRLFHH
Protocol: The inhibitors were assayed under two conditions, limiting the amount of each substrate. In one case 168 nM of ATIC, 100 μM of 10-f-THF and 20 μM of AICAR was used (limiting AICAR), and in the second case 168 nM of ATIC, 40 μM of 10-f-THF and 100 μM of AICAR was used (limiting 10-f-THF). The reactions were monitored as outlined above, for 50 minutes. […] The data was fitted to the standard inhibition models (non-competitive, uncompetitive, mixed and competitive) and a model in which the inhibitor binds a monomer of ATIC preventing dimerization.
The progress curves were fitted to a model in which the inhibitor binds a single protomer of ATIC thereby preventing dimerization, as well as the standard inhibition models (non-competitive, uncompetitive, mixed and competitive) using DynaFit [Kuzmic (1996)].

[2] = target: T2, ATIC homodimer (Gallus gallus, UniProt P31335); test: ATIC RTHS ranking by spotting serial dilutions on selective media; assay type: cell-based; conditions: cyclic peptides in order of biological activity (1 = most active)
T2 construct: expressed in transfected cells; host or cells: E. coli RTHS strain with the ATIC fusion integrated on the chromosome
T2 sequence (P31335 1-593): T1 sequence (P31335 1-593)
Protocol: ATIC was cloned as a fusion with the bacteriophage 434 repressor DNA binding domain (into pTHCP16, FIG. 1B) such that expression of the repressor-ATIC fusion placed under control of an isopropyl β-D-thiogalactoside (IPTG) inducible promoter. […] In order to improve selection conditions, a new RTHS strain was constructed by integrating the ATIC fusion onto the chromosome. The level of IPTG giving optimal repression was determined to be 50 μM by β-galactosidase assays.
The first SICLOPPS library transformed into the selection strain encoded a hexapeptide with five random residues and a cysteine nucleophile. Approximately 10^7 transformants were plated onto histidine-free minimal media supplemented with arabinose, (inducer for SICLOPPS) 3-amino-1,2,4-triazole (3-AT, competitive inhibitor of HIS3 product) and kanamycin at a density of 10^6 per plate (100×15 mm). The plates were incubated until colonies were readily visible (approximately one in 10^5). A second library encoding an octapeptide with five random residues and an invariable SGW motif was also tested (not shown). Around 200 colonies were picked and screened for arabinose dependent growth advantage and IPTG dependent inhibition of growth to eliminate false positives. The expected phenotype was further confirmed by isolating and retransforming the selected SICLOPPS plasmids into the selection strain. The 14 remaining cyclic peptides were then ranked for activity by spotting serial dilutions of the corresponding cells onto selective media, allowing the conferred growth advantage to be compared at each dilution level.
SICLOPPS libraries were transformed into E. coli strains containing integrated reporter and repressor constructs. Transformants were washed with minimal media A and plated on minimal media A supplemented with 13 μM L-(+)-arabinose, 2.5 mM 3-amino-1,2,4-triazole, 25 μM kanamycin and 50 μM IPTG. After incubation at 37° C. for 3-4 days, surviving colonies were restreaked onto the same media with and without arabinose. Plasmids from selected strains whose growth depended on the presence of arabinose were retransformed into the original selection strain and checked for phenotype retention. The variable insert regions on SICLOPPS plasmids were PCR-amplified, and their DNA sequence determined.

[3] = target: T3, His6-mR2 (Mus musculus, UniProt P11157); test: Quenching of intrinsic mR2 tryptophan fluorescence; assay type: binding, murine; conditions: PBS pH 7.0
T3 construct: made in house; host or cells: E. coli BL21(λDE3), pET28a-MR2
T3 sequence (P11157 1-390): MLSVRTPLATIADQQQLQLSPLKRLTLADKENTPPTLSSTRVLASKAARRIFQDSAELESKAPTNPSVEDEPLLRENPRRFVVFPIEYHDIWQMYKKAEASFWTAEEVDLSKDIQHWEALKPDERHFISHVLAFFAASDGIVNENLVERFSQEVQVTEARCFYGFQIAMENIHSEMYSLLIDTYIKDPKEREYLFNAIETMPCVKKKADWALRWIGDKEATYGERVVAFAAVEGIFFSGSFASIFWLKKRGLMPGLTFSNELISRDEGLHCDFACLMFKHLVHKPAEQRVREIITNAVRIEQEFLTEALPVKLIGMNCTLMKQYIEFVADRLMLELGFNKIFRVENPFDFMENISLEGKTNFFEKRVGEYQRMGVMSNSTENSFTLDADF
Protocol: The equilibrium dissociation constant, KD, for His-tagged mR2·cRR130 complex was measured by the quenching of intrinsic protein fluorescence as a function of ligand concentration using a Flouromax-2 (SA Instruments) spectrofluorometer. His6-mR2 was added to 1× phosphate buffered saline (PBS) buffer at pH 7.0, and enzyme concentrations were kept below the KD being measured and were typically 1 μM. The small subunit mR2 contains six tryptophan residues whose combined fluorescence was monitored at 350 nm with excitation at 295 nm. Fluorescence data were collected as a function of added cRR130. The data was corrected for ligand background fluorescence and were fit to a hyperbolic equation to generate the KD value.

[4] = target: T4, ribonucleotide reductase large subunit (mR1) (Mus musculus, UniProt P07742); test: Immobilized peptide binding/competition ELISA with mR1; parameters: species or system murine; conditions: peptide immobilized via cysteine on maleimide plates; His6-tagged mR1
T4 construct: made in house; host or cells: E. coli BL21(λDE3) Rosetta, pET28a-MR1
T4 sequence (P07742 1-792): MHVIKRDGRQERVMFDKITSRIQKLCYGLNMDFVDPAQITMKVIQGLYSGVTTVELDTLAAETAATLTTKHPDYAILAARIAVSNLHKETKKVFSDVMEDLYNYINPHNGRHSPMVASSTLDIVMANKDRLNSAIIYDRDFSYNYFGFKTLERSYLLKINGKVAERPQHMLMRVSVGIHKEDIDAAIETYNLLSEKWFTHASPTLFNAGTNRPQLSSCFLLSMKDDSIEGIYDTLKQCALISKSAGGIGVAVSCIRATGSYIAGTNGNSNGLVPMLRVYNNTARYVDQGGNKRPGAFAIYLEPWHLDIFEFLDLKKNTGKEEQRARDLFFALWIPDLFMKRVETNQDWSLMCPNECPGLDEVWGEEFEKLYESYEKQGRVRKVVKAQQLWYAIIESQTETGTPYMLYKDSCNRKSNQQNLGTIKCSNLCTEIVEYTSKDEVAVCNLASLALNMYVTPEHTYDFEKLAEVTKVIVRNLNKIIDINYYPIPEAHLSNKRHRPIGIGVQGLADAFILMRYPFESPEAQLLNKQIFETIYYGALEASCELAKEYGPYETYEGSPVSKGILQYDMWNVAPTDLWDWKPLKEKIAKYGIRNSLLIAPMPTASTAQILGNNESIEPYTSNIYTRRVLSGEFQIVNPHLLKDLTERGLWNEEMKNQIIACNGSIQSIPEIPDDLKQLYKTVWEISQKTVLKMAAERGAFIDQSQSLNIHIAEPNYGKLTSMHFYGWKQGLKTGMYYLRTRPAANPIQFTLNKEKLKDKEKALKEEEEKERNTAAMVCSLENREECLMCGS
Protocol: (§1) FIG. 8B provides the results of an immobilized P8 ELISA.
(§2) Two variations of solid phase binding assays were used for analyzing the binding of peptide inhibitors to ribonucleotide reductase subunits: i) protein competition ELISA where peptides were competing with mR1 for binding to immobilized mR2, ii) binding and competition ELISA with covalently immobilized ligands. In general, the solid phase assays were performed in microtiter plates (MaxiSorp, Nunc) or strip units (Reacti-Bind™ Maleimide Activated Clear Strip Plates, Pierce) involving continuous agitation in Junior Orbit Shaker (Lab-line Instruments) at medium speed during all of the incubation steps. Sample volumes were 100 μL, unless specified otherwise. Following coating, blocking step was conducted by incubating pre-loaded wells with 5% bovine serum albumin in PBS for 1 h at room temperature. Wash procedures between any two successive incubations involved three washes with 200 μL of 0.5% Tween-20 in PBS (PBST), with the second wash involving a 5 min incubation. Detection of His-tagged proteins was performed with Ni·NTA-HRP conjugate (Qiagen) according to the manufacturer instructions.
(§3) Peptides (200 nmol per well) in 10% DMF/50 mM Tris·HCl (pH 7.5) with 1 mM TCEP were reacted for 2 h at room temperature with maleimide-derivatized polystyrene wells. The unreacted sites were blocked by incubating wells with 5 μM cysteine in 50 mM Tris·HCl (pH 7.5) for 30 min. Following washing and blocking steps, the wells were incubated with His-tagged mR1 or mR2 in the presence or absence of inhibitors. The retained protein was detected via Ni·NTA-HRP conjugate.
(§4) To determine the mechanism of action of the four identified sequences an alternative assay format was devised (FIG. 8A), where a peptide with a residual activity in its immobilized form can serve as a specific ligand for receptor capture in both binding and competition ELISA. The success of such an assay relies on both efficient peptide immobilization strategy and sufficient level of affinity, uncompromised by this display strategy. The peptide immobilization becomes feasible through implementation of a cysteine, a nucleophile used in splicing, as a universal chemoselective handle allowing covalent attachment strategy through a suitable electrophile. Chemoselective attachment of such peptides on appropriately derivatized surfaces should both display the small molecules for detection with a suitable protein receptor and allow binding site competition analysis, not unlike in a traditional immunosorbent format.

[5] = target: T5, ribonucleotide reductase small subunit (mR2) (Mus musculus, UniProt P11157); test: Immobilized c-RR130 binding/competition ELISA with mR2; parameters: species or system murine; conditions: increasing protein concentrations
T5 construct: made in house; host or cells: E. coli BL21(λDE3), pET28a-MR2
T5 sequence (P11157 1-390): T3 sequence (P11157 1-390)
Protocol: as §1, §2, §3, §4

[6] = target: T6, HIV-1 protease (Human immunodeficiency virus type 1 group M subtype B, UniProt P04585, D513N); test: RTHS β-galactosidase assay, HIV-1 protease fusion in strain SNS118; assay type: cell-based; conditions: peptide co-expressed with HIV-1 protease fusion
T6 construct: HIV-1 protease was PCR amplified from pET-HIV-1; expressed in transfected cells; host or cells: E. coli strain SNS118 (integrated fusion)
Protocol: FIG. 4 has two graphs (A and B) of β-galactosidase assays showing the effect of linear peptide inhibitors on the oligomeric state of HIV-1 protease and ribonucleotide reductase.
pHIV5. HIV-1 protease was PCR amplified from pET-HIV-1 [Ido et al. (1991) J. Biol. Chem. 266:24359-24366] and cloned into SalI and BamHI sites of pTHCP16. The catalytic aspartate (D25) was mutated to asparagine using 3-primer PCR [Michael (1994) Biotechniques 16:410-412], and a S(G)4S linker was added at the SalI site.
Overlapping oligonucleotides encoding MTVSYEL (methionine plus hexapaptide control inhibitor) (SEQ ID:17) [Schramm et al. (1996) Antiviral Res. 30:155-170] were cloned into EcoRI and SphI sites on arabinose expression plasmid pBAD18.
Towards this goal, both enzyme complexes were probed with known linear peptidic inhibitors. These peptides are a C-terminal hexapeptide (FIG. 4A, pHIV16) for HIV protease that inhibits the essential β-sheet interactions [Schramm al. (1996) Antiviral Res. 30:155-170], and a heptapeptide for ribonucleotide reductase (pTHCP35, FIG. 4B) that competes with binding between subunits mR1 and mR2 [Yang et al. (1990) FEBS Lett. 272:61-64].

Best-fitting inhibition model with respect to 10-f-THF [1]: inhibition of enzyme dimerization
Best-fitting inhibition model with respect to AICAR [1]: non-competitive inhibition model
Activity Rank [2]: 1
Molecule: CC(C)[C@@H]1NC(=O)[C@H](CC(N)=O)NC(=O)[C@H](Cc2ccccc2)NC(=O)[C@H](Cc2ccc(O)cc2)NC(=O)[C@H](CCCNC(=N)N)NC(=O)[C@H](CS)NC1=O [c-1a, R Y F N V C] (cyclo(RYFNVC))

Kd [3]: 53 µM
Affinity of immobilized peptide toward mR1 [4]: immune
Capture of His6-tagged mR2 by immobilized peptide [5]: selectively captured
Molecule: CC(C)[C@@H]1NC(=O)[C@H](CC(N)=O)NC(=O)[C@H](Cc2ccc(O)cc2)NC(=O)[C@H](Cc2ccc(O)cc2)NC(=O)[C@H](CCCNC(=N)N)NC(=O)[C@H](CS)NC1=O [c-RR130] (cyclo(CRYYNV))

Kd [3]: 133 µM
Molecule: CC(C)[C@@H]1NC(=O)[C@H](Cc2ccc(O)cc2)NC(=O)[C@H](CCCNC(=N)N)NC(=O)[C@H](Cc2c[nH]cn2)NC(=O)[C@H](CS)NC(=O)[C@H](Cc2ccccc2)NC1=O [c-RR133] (cyclo(CHRYVF))

Molecule: MTVSYEL [pHIV16]
Repression of the lacZ reporter [6]: relieved repression
